# Reference: paper PMC8327158, “PEGylated AdipoRon derivatives improve glucose and lipid metabolism under insulinopenic and high-fat diet conditions” (Journal of Lipid Research, 2021)
# Tests used:
# [1] = set-up: method as in https://www.caymanchem.com/pdfs/15941.pdf; details: ref https://www.caymanchem.com/pdfs/15941.pdf; cited from earlier work
# HFD-fed wild-type mice = test: Food intake, body weight, ITT and OGTT in mice on HFD for 7 months; format: in vivo, mouse; details: HFD 7 months, 5 mg/kg twice a day for 5 days
# Protocol: For oral glucose tolerance test (OGTT), mice were fasted for 4–6 h and subjected to an oral gavage of dextrose (2 mg/g body weight). Tail blood was collected at 0, 15, 30, 60, and 120 min and prepared for serum and assayed for glucose and insulin. For insulin tolerance test (ITT), insulin (0.75 U/kg Humulin R; Eli Lilly, Indianapolis, IN) was administered under fed condition. Serum glucose level was measured at 0, 15, 30, 60, and 90 min time point. Triglyceride tolerance test (TGTT) was initiated by oral gavage of 20% Intralipid (10 μl/g BDW, l141-100 ml, Sigma), and serum was collected at 0, 1, 1.5, 3, and 6 h for triglyceride assay. Glucose, insulin, and triacylglyceride levels were measured using an oxidase-peroxidase assay (Sigma P7119), insulin ELISA (Crystal Chem, Elk Grove village, IL, #15596018), and Infinity Triglycerides Reagent (Thermo Fisher Scientific TR22421).
# Six-week-old wild-type male mice were fed HFD for 4 weeks or 7 months In total, 5 mg/Kg of PBS, Adiporon, AdipoRonPEG5, AdipoRonPEG6HTL were injected twice a day for 5 days. After 5 days of treatment, systemic test is performed, and serum (Before and after treatment), subcutaneous, epididymal, liver, heart samples were harvested for qPCR and sphingolipid analysis.
Structure (SMILES),solubility in neutral phosphate buffer containing >30% DMSO [1] [µg/mL],blood glucose levels in ITT (HFD-fed wild-type mice),blood glucose levels in OGTT (HFD-fed wild-type mice),blood insulin levels in OGTT (HFD-fed wild-type mice),food intake or body weight (HFD-fed wild-type mice)
O=C(COc1ccc(C(=O)c2ccccc2)cc1)NC1CCN(Cc2ccccc2)CC1 [AdipoRon],250,,,,
O=C(COc1ccc(C(=O)c2ccccc2)cc1)NC1CCN(Cc2ccc(OCCOCCOCCOCCOCCO)cc2)CC1 [AdipoRonPEG5],,significant reduction,not altered,reduction of blood insulin levels,no significant impact
